Source: patent US20130309209A1, “FORMATION OF HEMATOPOIETIC PROGENITOR CELLS FROM MESENCHYMAL STEM CELLS” (Center for Regenerative Medicine of Barcelona, priority 2010, published 2013)

Columns and labels:
Human MSCs [1] = assay: Flow cytometry surface staining (CD34, CD45, CD43, CD133) of MSCs undergoing hematopoietic transdetermination; format: cell-based
Excerpt: The following antibodies were used for flow cytometry and western blotting experiments respectively: mouse anti-human CD34-APC (130-046-703, Miltenyi), mouse anti-human CD45-FITC (130-080-202, Miltenyi), mouse anti-human CD133/2 (293C3)-PE (130-090-853, Miltenyi), mouse anti-human CD43-FITC (560978, BD biosciences), mouse APC isotype control (555751, BD biosciences), mouse FITC isotype control (555748, BD biosciences), The TGFβRI SB431542 (S4317, Sigma-Aldrich) and MEK/ERK U0126 (U120, Sigma-Aldrich) inhibitors were diluted in DMSO accordingly to the manufacturers' instruction and used at a final concentration of 25 and 10 μM respectively during the duration of the experiments with media changes every second day unless otherwise stated. Equal concentration of the solvent alone was used as a negative control.
Human OE-MSC and MSC-AT cells (passage 7) were infected (day 0) with pMX-based retroviruses by spinfection of the cells at 1850 rpm for 1 hour in the presence of polybrene (4 μg/ml). Cells were maintained in the retroviruses-containing media for 12 hours and then the media was removed and replaced by the cell-specific culture medium. Twenty four hours after the first infection (day 1), a second round of infection was performed. The day after (day 2), cells were maintained in their respective media for 24 hours before being switched to a Wicell media containing DMEM/F12 (Invitrogen) supplemented with 20% Knockout Serum Replacement (Invitrogen), 1 mM L-glutamine, 0.1 mM non-essential aminoacids, […] β-mercaptoethanol and 10 ng/ml bFGF.
Human MSCs undergoing hematopoietic transdetermination were harvested at the indicated time points. Cells were washed once with PBS and further incubated with the corresponding antibodies in the presence of FACS blocking buffer (1×PBS/10% FCS) for 1 hour on ice in the absence of light. After incubation, cells were washed three times with 1 ml FACS blocking buffer and resuspended in a total volume of 200 μl prior to analysis. A minimum of 10,000 living cells were analyzed.
2.5 μg of recombinant human Sox2-TAT (110-03T, Peprotech) was added to the culture media every 12 hours prior to analysis of transdetermination.

Human MSCs [2] = assay: Real time PCR (RT-PCR) analysis of hematopoietic and pluripotency marker mRNA; format: cell-based
Description: Total RNA was isolated using Trizol Reagent (Invitrogen) according to the manufacturer's recommendations. 1 μg of DNAse1 (invitrogen) treated total RNA was used for cDNA synthesis using the SuperScript II Reverse Transcriptase kit for RT-PCR (Invitrogen). Real-time PCR was performed using the SYBR-Green PCR Master mix (Applied Biosystems). The levels of expression of respective genes were normalized to corresponding GAPDH values and are shown as fold change relative to the value of the control sample. All the samples were done in triplicate. The sequences correspond to SEQ ID NOs:7-68, and are listed in order, i.e., SEQ ID NO:7 (OCT4 endogenous 5′ oligo), SEQ ID NO:8 (OCT4 endogenous 3′oligo), SEQ ID NO:9 (NANOG 5′ oligo), etc.

Human MSCs [3] = assay: Western blotting of tyrosine phosphorylation of cellular proteins; format: cell-based; details: TGF beta inhibition added to standard transgeneration conditions
Excerpt: TGF signaling involves a series of serine/threonine phosphorylation events, and its regulation is related to the activity of the MAPK-MEK-ERK pathway, a receptor tyrosine kinase (RTK) activated pathway. Thus, in order to address potential crosstalk involving tyrosine phosphorylation-dependent pathways Applicants investigated the effect of Applicants' different protocols on tyrosine phosphorylation of multiple cellular proteins by western blotting.

[4] = system: CD34+ OE-MSC-derived cells; assay: Hematopoietic colony forming assays; format: cell-based, human; details: CD34+ cells accumulated during chronic inhibition of TGFβ
Description: Hematopoietic clonogenic assays were performed in 35-mm low adherent plastic dishes (Stem Cell Technologies, Vancouver, BC, Canada) using 1.1 ml/dish of methylcellulose semisolid medium (MethoCult H4434 classic, Stem Cell Technologies) according to the manufacturer's instructions. Briefly, enriched CD34+ OE-MSC-derived cells were sorted and immediately plated at various densities: 1.5×10^3/ml, 3×10^3/ml and 6×10^3/ml. All assays were performed in duplicate. Colony-forming units (CFU) and Burst-forming units (BFU) were scored after 7 to 14 days of incubation according to their colony morphology as erythroid (CFU-E and BFU-E), granulocyte, erythroid, macrophage, megakaryocyte (CFU-GEMM), granulocyte-macrophage (CFU-GM), and macrophage (CFU-M).

For `NC(=O)c1ccc(-c2nc(-c3ccc4c(c3)OCO4)c(-c3ccccn3)[nH]2)cc1` [SB431542], the “generation of CD34+ cells” value (Human MSCs [1]; Sox2 transduction in combination with TGFβRI inhibitor (FIG. 4C)) was “does not impair”, the “newly generated CD45+ cells” value (Human MSCs [1]; Sox2 transduction in combination with TGFβRI inhibitor, days 2-8 (FIG. 4D)) was “significant reduction” and the “generation of CD34+CD45+ and CD45+ cell populations” value (Human MSCs [1]; in combination with Sox2 transduction, 4 days of transdetermination (FIG. 5E)) was “significantly abolishes”. The “CD34+CD45+ cells” value (Human MSCs [1]; inhibition of the TGF beta pathway alone during ten days, compared to DMSO control, 25 μM) was “around 10%”, the “CD34+ cells” value (Human MSCs [1]; inhibition of the TGFβ pathway, no Sox2 transduction, 25 μM) was 10-25% and the “CD34+ cells” value (Human MSCs [1]; long-term inhibition of TGF beta pathway during a one month period in culture, compared to standard protocol) was “up to 75%”. The “endogenous Sox2 and Oct4 expression” value (Human MSCs [2]; chronic inhibition of TGFβ signaling alone (FIG. 4B)) was “sufficient to upregulate”, the “HPC-related markers at the mRNA level” value (Human MSCs [2]; chronic inhibition of TGFβ signaling alone, days 2-7 (FIG. 5C)) was “significant upregulation” and the “early hematopoietic markers GATA2, Runx1, CD43 and CD41” value (Human MSCs [2]; inhibition of TGF signaling) was “downregulation”. The “endogenous Sox2 expression” value (Human MSCs [2]; inhibition of TGF signaling (Example 9)) was “downregulation”, the “tyrosine phosphorylation of cellular proteins” value (Human MSCs [3]) was “further enhances” and the “multilineage potential of sorted CD34+ cells” value [4] was “retain multilineage potential”.
`N#CC(=C(/N)Sc1ccccc1N)/C(C#N)=C(\N)Sc1ccccc1N` [U0126] was tested, and the “early CD34+ progenitors” value (Human MSCs [1]; chronic inhibition of ERK alone, no ectopic Sox2, 10 μM) was “up to 35%”.
